Measured values taken from the NIST ThermoML archive (doi:10.1021/acs.jced.5b00536).
Several values for one entry are separate records, joined by “and”; a condition that tells them apart may be missing. Equal entries are not always repeated.

Assay: xn = mol fraction of the nth substance listed
Conditions: 100 kPa, Liquid, x2 = 0.79; for electrical conductivity: Alternating current cell with electrodes; for mass density: Buoyancy - hydrostatic balance

[Ca+2].[F-].[F-] [calcium fluoride] + [F-].[Li+]
Conditions | electrical conductivity [S/m] | mass density
1063.8 K | 0.053003 | –
1065.5 K | 0.053101 | –
1067.1 K | 0.053153 | –
1068.8 K | 0.05333 | –
1070.4 K | 0.05353 | –
1071.9 K | 0.05375 | –
1073.5 K | 0.05359 | –
1075.2 K | 0.0537 | –
1075.7 K | – | 2107.8 kg/m3
1075.9 K | – | 2107.3 kg/m3
1076.2 K | – | 2106.7 kg/m3 and 2107.8 kg/m3
1076.7 K | – | 2106.6 kg/m3
1076.8 K | 0.05368 | 2106 kg/m3
1077.1 K | – | 2106 kg/m3
1077.5 K | – | 2105.4 kg/m3
1077.7 K | – | 2104.8 kg/m3
1078 K | – | 2104.8 kg/m3
1078.4 K | – | 2104.2 kg/m3
1078.5 K | 0.05386 | –
1078.7 K | – | 2104.1 kg/m3
1079.1 K | – | 2103.5 kg/m3
1079.4 K | – | 2103.5 kg/m3
1079.8 K | – | 2102.9 kg/m3
1080 K | – | 2102.9 kg/m3
1080.1 K | 0.05394 | –
1080.3 K | – | 2102.3 kg/m3
1080.7 K | – | 2101.7 kg/m3
1081.1 K | – | 2101.6 kg/m3
1081.4 K | – | 2101 kg/m3
1081.8 K | 0.054 | 2101 kg/m3
1082 K | – | 2100.4 kg/m3
1082.4 K | – | 2099.8 kg/m3
1082.9 K | – | 2099.7 kg/m3
1083.4 K | 0.0542 | –
1083.5 K | – | 2099.1 kg/m3
1083.6 K | – | 2099.1 kg/m3
1083.8 K | – | 2098.5 kg/m3
1084.3 K | – | 2098.5 kg/m3
1084.5 K | – | 2097.9 kg/m3
1085 K | – | 2097.8 kg/m3
1085.1 K | 0.05436 | –
1085.5 K | – | 2097.2 kg/m3
1085.9 K | – | 2096.6 kg/m3
1086.1 K | – | 2096.6 kg/m3
1086.4 K | – | 2096 kg/m3
1086.8 K | 0.05455 | –
1086.9 K | – | 2095.9 kg/m3
1087.2 K | – | 2095.3 kg/m3
1087.8 K | – | 2094.7 kg/m3
1088.2 K | – | 2094.7 kg/m3
1088.4 K | 0.05469 | –
1088.6 K | – | 2094.1 kg/m3
1088.8 K | – | 2094 kg/m3
1089.3 K | – | 2093.4 kg/m3
1089.5 K | – | 2092.8 kg/m3
1090 K | – | 2092.8 kg/m3
1090.1 K | 0.05496 | –
1090.5 K | – | 2092.2 kg/m3
1090.8 K | – | 2092.1 kg/m3
1091.2 K | – | 2093.7 kg/m3
1091.7 K | – | 2093.7 kg/m3
1091.8 K | 0.05506 | –
1091.9 K | – | 2093.1 kg/m3
1092.8 K | – | 2091.9 kg/m3 and 2092.4 kg/m3
1093.1 K | – | 2091.3 kg/m3
1093.4 K | 0.05525 | –
1093.8 K | – | 2091.2 kg/m3
1094.1 K | – | 2090.6 kg/m3
1094.4 K | – | 2090.6 kg/m3
1094.8 K | – | 2092.8 kg/m3
1095 K | – | 2092.2 kg/m3
1095.1 K | 0.05547 | –
1095.5 K | – | 2092.1 kg/m3
1096.2 K | – | 2090.9 kg/m3
1096.3 K | – | 2090.9 kg/m3 and 2091.5 kg/m3
1096.7 K | – | 2090.3 kg/m3
1096.8 K | 0.0556 | –
1096.9 K | – | 2089.7 kg/m3
1097.3 K | – | 2089.1 kg/m3
1097.6 K | – | 2089.1 kg/m3
1098 K | – | 2088.5 kg/m3
1098.4 K | – | 2087.9 kg/m3
1098.5 K | 0.05571 | –
1098.8 K | – | 2087.3 kg/m3
1099.1 K | – | 2087.2 kg/m3
1099.5 K | – | 2086.6 kg/m3
1099.9 K | – | 2086 kg/m3
1100.2 K | 0.05586 | 2086 kg/m3
1100.7 K | – | 2085.4 kg/m3
